Laboratory results published in US7960556B2, “Thiadiazole derivatives for the treatment of neuro-degenerative diseases” (NV reMYND, priority 2006, dated 2011).

System: α-synuclein cytotoxicity in M17-SYNwt cells
Assay: α-synuclein cytotoxicity assay: LDH leakage from paraquat-treated M17-SYNwt neuroblastoma cells;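 further: paraquat at 32 mM co-added with compound, 40 h exposure, LDH activity released into the culture medium measured, references are DMSO-only cells and paraquat plus DMSO cells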
Settings: Homo sapiens, Neuroblastoma cell; for Emax: read-out: % Inhib.

Compound | Emax [%] | EC50 [nM]
COc1ccc(NC(=O)N2CCN(c3nc(Cc4ccc(F)cc4)ns3)CC2)c(OC)c1 [compound 27, N-(2,4-dimethoxyphenyl)-4-[3-(4-fluorobenzyl)-1,2,4-thiadiazol-5-yl]piperazine-1-carboxamide] | 67 | –
COc1ccc(S(=O)(=O)N2CCN(c3nc(Cc4ccc(Cl)cc4)ns3)CC2)cc1 [compound 31, 1-[4-methoxyphenylsulfonyl]-4-[3-(4-chlorobenzyl)-1,2,4-thiadiazol-5-yl]piperazine] | 59 | 0.169
Cc1cccc(C)c1NC(=O)N1CCN(c2nc(Cc3ccc(F)cc3)ns2)CC1 [compound 24, N-(2,6-dimethylphenyl)-4-[3-(4-fluorobenzyl)-1,2,4-thiadiazol-5-yl]piperazine-1-carboxamide] | 124 | 1200
O=C(Cc1ccccc1)NCCN1CCN(c2nc(Cc3ccc(F)cc3)ns2)CC1 [compound 108, 2-phenyl-N-{2-[4-[3-(4-fluorobenzyl)-1,2,4-thiadiazol-5-yl]piperazin-1-yl]ethyl}acetamide] | 63 | 2060
O=C(c1cc(Cl)cc(Cl)c1)N1CCN(c2nc(Cc3ccc(F)cc3)ns2)CC1 [compound 137, 1-(3,5-dichlorobenzoyl)-4-[3-(4-fluorobenzyl)-1,2,4-thiadiazol-5-yl]piperazine] | 68 | 350
COc1ccc(S(=O)(=O)N2CCN(c3nc(Cc4ccc(C)cc4)ns3)CC2C)cc1 (stereo not shown) [compound 60, 1-[4-methoxyphenylsulfonyl]-4-[3-(4-methylbenzyl)-1,2,4-thiadiazol-5-yl]-2-methylpiperazine] | 93 | 0.033
CC1CN(c2nc(Cc3ccc(F)cc3)ns2)CCN1C(=O)Nc1ccccc1C(F)(F)F (stereo not shown) [compound 18, N-(2-trifluoromethylphenyl)-4-[3-(4-fluorobenzyl)-1,2,4-thiadiazol-5-yl]-2-methylpiperazine-1-carboxamide] | 41 | –
CC1CN(c2nc(Cc3ccccc3)ns2)CCN1C(=O)c1cccc(F)c1 (stereo not shown) [compound 150, 1-(3-fluorobenzoyl)-4-[3-benzyl-1,2,4-thiadiazol-5-yl]-2-methylpiperazine] | 99 | 1140
O=C(NCCN1CCN(c2nc(Cc3ccc(F)cc3)ns2)CC1)c1cccc(F)c1 [compound 105, 3-fluoro-N-{2-[4-[3-(4-fluorobenzyl)-1,2,4-thiadiazol-5-yl]piperazin-1-yl]ethyl}benzamide] | 115 | –
CC1CN(c2nc(Cc3ccccc3)ns2)CCN1C(=O)c1ccc(F)cc1 (stereo not shown) [compound 154, 1-(4-fluorobenzoyl)-4-[3-benzyl-1,2,4-thiadiazol-5-yl]-2-methylpiperazine] | 75 | 1580
O=C(NCCN1CCN(c2nc(Cc3ccc(F)cc3)ns2)CC1)c1ccc(Cl)cc1 [compound 97, 4-chloro-N-{2-[4-[3-(4-fluorobenzyl)-1,2,4-thiadiazol-5-yl]piperazin-1-yl]ethyl}benzamide] | 68 | 1290
COc1ccc(S(=O)(=O)N2CCN(c3nc(Cc4ccc(Cl)cc4)ns3)CC2C)cc1 (stereo not shown) [compound 51, 1-[4-methoxyphenylsulfonyl]-4-[3-(4-chlorobenzyl)-1,2,4-thiadiazol-5-yl]-2-methylpiperazine] | 94 | 1.35
O=C(c1ccc2c(c1)OCO2)N1CCCN(c2nc(Cc3ccc(F)cc3)ns2)CC1 [compound 191, 1-(1,3-benzodioxol-5-ylcarbonyl)-4-[3-(4-fluorobenzyl)-1,2,4-thiadiazol-5-yl]-1,4-diazepane] | 63 | –
CC1CN(c2nc(Cc3ccc(F)cc3)ns2)CCN1C(=O)c1ccc2c(c1)OCO2 (stereo not shown) [compound 178, 1-(1,3-benzodioxol-5-ylcarbonyl)-4-[3-(4-fluorobenzyl)-1,2,4-thiadiazol-5-yl]-2-methylpiperazine] | 68 | –
COc1ccc(S(=O)(=O)NCCNc2nc(Cc3cccc(OC)c3)ns2)cc1 [compound 209, 1-N-[4-methoxyphenylsulfonyl]-N′-[3-(3-methoxybenzyl)-1,2,4-thiadiazol-5-yl]-ethane-1,2-diamine] | 100 | 317
O=C(NCCN1CCN(c2nc(Cc3ccccc3)ns2)CC1)c1cccc(F)c1 [compound 106, 3-fluoro-N-{2-[4-[3-benzyl-1,2,4-thiadiazol-5-yl]piperazin-1-yl]ethyl}benzamide] | 49 | –
COc1cccc(Cc2nsc(N3CCN(C(=O)c4ccc(C(F)(F)F)cc4)C(C)C3)n2)c1 (stereo not shown) [compound 168, 1-(4-trifluoromethylbenzoyl)-4-[3-(3-methoxybenzyl)-1,2,4-thiadiazol-5-yl]-2-methylpiperazine] | 91 | –
Cc1ccc(Cc2nsc(N3CCN(S(=O)(=O)c4ccc([N+](=O)[O-])cc4)C(C)C3)n2)cc1 (stereo not shown) [compound 71, 1-[4-nitrophenylsulfonyl]-4-[3-(4-methylbenzyl)-1,2,4-thiadiazol-5-yl]-2-methylpiperazine] | 33 | –
Cc1ccc(Cc2nsc(N3CCN(C(=O)c4cccc(F)c4)C(C)C3)n2)cc1 (stereo not shown) [compound 156, 1-(3-fluorobenzoyl)-4-[3-(4-methylbenzyl)-1,2,4-thiadiazol-5-yl]-2-methylpiperazine] | 86 | 1670

Compound | Emax [%] | EC50 [nM]
Fc1ccc(Cc2nsc(N3CCN(c4ccccc4F)CC3)n2)cc1 [compound 187, 1-(2-fluorophenyl)-4-[3-(4-fluorobenzyl)-1,2,4-thiadiazol-5-yl]piperazine] | 83 | 2810
CC1CN(c2nc(Cc3ccc(F)cc3)ns2)CCN1C(=O)c1ccc(F)cc1 (stereo not shown) [compound 127, 1-(4-fluorobenzoyl)-4-[3-(4-fluorobenzyl)-1,2,4-thiadiazol-5-yl]-2-methylpiperazine] | 108 | 230
CCCCc1ccc(C(=O)NCCN2CCN(c3nc(Cc4ccc(F)cc4)ns3)CC2)cc1 [compound 95, 4-butyl-N-{2-[4-[3-(4-fluorobenzyl)-1,2,4-thiadiazol-5-yl]piperazin-1-yl]ethyl}benzamide] | 78 | 380
O=C(Nc1cccc(F)c1)N1CCN(c2nc(Cc3ccc(F)cc3)ns2)CC1 [compound 9, N-(3-fluorophenyl)-4-[3-(4-fluorobenzyl)-1,2,4-thiadiazol-5-yl]piperazine-1-carboxamide] | 53 | 520
CC1CN(c2nc(Cc3ccc(F)cc3)ns2)CCN1C(=O)Cc1ccccc1 (stereo not shown) [compound 5, 1-phenylacetyl-4-[3-(4-fluorobenzyl)-1,2,4-thiadiazol-5-yl]-2-methylpiperazine] | 83 | –
CCc1ccc(S(=O)(=O)N2CCN(c3nc(Cc4ccc(F)cc4)ns3)CC2)cc1 [compound 197, 1-[4-ethylphenylsulfonyl]-4-[3-(4-fluoro-benzyl)-1,2,4-thiadiazol-5-yl]piperazine] | 84 | 535
CCCCCCc1ccc(C(=O)N2CCN(c3nc(Cc4ccc(C)cc4)ns3)CC2)cc1 [compound 176, 1-(4-hexylbenzoyl)-4-[3-(4-methylbenzyl)-1,2,4-thiadiazol-5-yl]piperazine] | 77 | –
Cc1ccc(Cc2nsc(N3CCN(C(=O)c4ccc(F)cc4)CC3)n2)cc1 [compound 160, 1-(4-fluorobenzoyl)-4-[3-(4-methylbenzyl)-1,2,4-thiadiazol-5-yl]piperazine] | 88 | 2870
COc1cccc(S(=O)(=O)N2CCN(c3nc(Cc4ccc(F)cc4)ns3)CC2)c1 [compound 44, 1-[3-methoxyphenylsulfonyl]-4-[3-(4-fluorobenzyl)-1,2,4-thiadiazol-5-yl]piperazine] | 99 | 128
CC(=O)Nc1ccc(S(=O)(=O)N2CCN(c3nc(Cc4ccc(F)cc4)ns3)CC2C)cc1 (stereo not shown) [compound 55, 1-[4-acetamidophenylsulfonyl]-4-[3-(4-fluorobenzyl)-1,2,4-thiadiazol-5-yl]-2-methylpiperazine] | 114 | 78.1
O=C(CCc1ccccc1)N1CCN(c2nc(Cc3ccc(F)cc3)ns2)CC1 [compound 90, 1-(3-phenylpropanoyl)-4-[3-(4-fluorobenzyl)-1,2,4-thiadiazol-5-yl]piperazine] | 73 | 1410
O=C(Nc1ccccc1C(F)(F)F)N1CCN(c2nc(Cc3ccc(F)cc3)ns2)CC1 [compound 17, N-(2-trifluoromethylphenyl)-4-[3-(4-fluorobenzyl)-1,2,4-thiadiazol-5-yl]piperazine-1-carboxamide] | 46 | –
CC1CN(c2nc(Cc3ccc(F)cc3)ns2)CCN1C(=O)Nc1ccc(F)c(F)c1 (stereo not shown) [compound 26, N-(3,4-difluorophenyl)-4-[3-(4-fluorobenzyl)-1,2,4-thiadiazol-5-yl]-2-methylpiperazine-1-carboxamide] | 70 | –
CC1CN(c2nc(Cc3ccc(F)cc3)ns2)CCN1C(=O)c1cccc(C(F)(F)F)c1 (stereo not shown) [compound 145, 1-(3-trifluoromethylbenzoyl)-4-[3-(4-fluorobenzyl)-1,2,4-thiadiazol-5-yl]-2-methylpiperazine] | 60 | 620
CC1CN(c2nc(Cc3ccc(F)cc3)ns2)CCN1C(=O)c1cccc(Cl)c1 (stereo not shown) [compound 122, 1-(3-chlorobenzoyl)-4-[3-(4-fluorobenzyl)-1,2,4-thiadiazol-5-yl]-2-methylpiperazine] | 92 | 140
Cc1ccc(Cc2nsc(N3CCN(S(=O)(=O)c4ccc(Br)cc4)CC3)n2)cc1 [compound 64, 1-[4-bromophenylsulfonyl]-4-[3-(4-methylbenzyl)-1,2,4-thiadiazol-5-yl]piperazine] | 58 | –
CC1CN(c2nc(Cc3ccc(F)cc3)ns2)CCN1C(=O)c1ccc2ccccc2c1 (stereo not shown) [compound 132, 1-(2-naphthoyl)-4-[3-(4-fluorobenzyl)-1,2,4-thiadiazol-5-yl]-2-methylpiperazine] | 74 | 260
CC1CN(c2nc(Cc3ccc(F)cc3)ns2)CCN1S(=O)(=O)c1ccccc1 (stereo not shown) [compound 47, 1-phenylsulfonyl-4-[3-(4-fluorobenzyl)-1,2,4-thiadiazol-5-yl]-2-methylpiperazine] | 129 | –
CC1CN(c2nc(Cc3ccc(F)cc3)ns2)CCN1C(=O)Cc1ccc(F)cc1 (stereo not shown) [compound 6] | 75 | –
